Tested on: healthy subjects
Assay: Phase 1 study: adverse events (TEAEs, MedDRA coded)
Assay type: in vivo, human
Experimental: A Phase 1 randomized, double-blind, placebo-controlled study to evaluate the effect of psilocybin on cognitive and emotional processing as compared to placebo in healthy volunteers was conducted. The study investigated the short-term (Day 7) and long-term (Day 28) effects of moderate (10 mg) and high doses (25 mg) of psilocybin on key domains of cognition, such as episodic memory, attention, working and spatial memory, social cognition and elements of executive function, including cognitive flexibility.
Each subject was assigned 1 treatment bottle containing 5 capsules packaged in a double-blind fashion, depending on the randomized treatment arm, the bottle contained one of the following: • a. Psilocybin 10 mg: 2×5-mg oral psilocybin capsules plus 3×placebo capsules • b. Psilocybin 25 mg: 5×5-mg oral psilocybin capsules • c. Placebo: 5×placebo capsules
Each 5-mg oral psilocybin capsules comprised 5 mg crystalline psilocybin in the form or Polymorph A, 12.5 mg of SMCC 50, 79.5 mg of SMCC 90, 1 mg sodium starch glycolate, 1 mg colloidal silicon dioxide, and 1 mg sodium stearyl fumarate
Adverse events: Throughout the course of the study, all AEs were monitored and recorded. Each AE was classified according to the following criteria: • i. […] Moderate: The AE produces some impairment of functioning, but is not hazardous to the subject's health. • iii. Severe: The AE produces significant impairment of functioning or incapacitation and is a definite hazard to the subject's health.
Visit 3 (V3): Drug Administration (Day 0): The subject was asked to eat a light breakfast at least two hours prior to coming to the clinic for study drug administration. On Day 0 (V3), the subject underwent the SSTS, had vital signs obtained, medications reviewed, AEs recorded and eligibility reviewed prior to being randomized to study drug. The study drug was administered to up to six subjects simultaneously in individual beds separated by a curtain. The subject was invited to put on eyeshades and headphones, lie down and listen to calming music for the rest of the session (six hours). The subject was supported 1:1 with a chaperone and supervised by the study psychiatrist and lead therapist.
During administration of psilocybin, each subject received one-on-one support from a trained assisting therapist and each dosing session was supervised by a study psychiatrist and a lead therapist. The study drug was administered simultaneously to up to six participants as a single 5-capsule oral dose (10 mg psilocybin: 2×5-mg psilocybin capsules plus 3×placebo capsules; 25 mg psilocybin: 5×5-mg psilocybin capsules; placebo: 5×placebo capsules). Twenty-five dosing sessions were completed, with up to six participants dosed simultaneously per session. Each session lasted approximately 6 to 8 hours with subjects encouraged to relax and engage in introspection for the duration. After the acute effects of the study drug had subsided, subjects were discharged.

## CN(C)CCc1c[nH]c2cccc(OP(=O)(O)O)c12 [Psilocybin, psilocybin]
10 mg and 25 mg oral, 12-week study
  Serious adverse events or adverse events that led to withdrawal: no serious adverse events or adverse events that led to withdrawal
10 mg oral
  AEs deemed potentially related to study treatment, % of AEs of the arm: 92.6%
  Affect lability, Events: 5
  Affect lability, N (%): 5 (16.7)
  Affect lability, worst severity Mild, Events: 3
  Affect lability, worst severity Mild, N (%): 3 (10.0)
  Affect lability, worst severity Moderate, Events: 2
  Affect lability, worst severity Moderate, N (%): 2 (6.7)
  Affect lability, worst severity Severe, Events: 0
  Affect lability, worst severity Severe, N (%): 0
  Any Selected TEAE, Events: 106
  Any Selected TEAE, N (%): 27 (90.0)
  Any TEAE leading to death, Events: 0
  Any TEAE leading to death, N (%): 0
  Any TEAE leading to study discontinuation, Events: 0
  Any TEAE leading to study discontinuation, N (%): 0
  Any TEAE related to study treatment, Events: 188
  Any TEAE related to study treatment, N (%): 29 (96.7)
  Any TEAE, Events: 203
  Any TEAE, N (%): 29 (96.7)
  Any TEAE, worst severity Mild, Events: 12
  Any TEAE, worst severity Mild, N (%): 6 (20.0)
  Any TEAE, worst severity Moderate, Events: 38
  Any TEAE, worst severity Moderate, N (%): 13 (43.3)
  Any TEAE, worst severity Severe, Events: 22
  Any TEAE, worst severity Severe, N (%): 10 (33.3)
  Any serious TEAE related to study treatment, Events: 0
  Any serious TEAE related to study treatment, N (%): 0
  Any serious TEAE, Events: 0
  Any serious TEAE, N (%): 0
  Any severe TEAE, Events: 22
  Any severe TEAE, N (%): 10 (33.3)
  Change in sustained attention, Events: 2
  Change in sustained attention, N (%): 2 (6.7)
  Depressed mood, Events: 1
  Depressed mood, N (%): 1 (3.3)
  Dissociative identity disorder, Events: 2
  Dissociative identity disorder, N (%): 1 (3.3)
  Emotional disorder, Events: 2
  Emotional disorder, N (%): 2 (6.7)
  Emotional disorder, worst severity Mild, Events: 1
  Emotional disorder, worst severity Mild, N (%): 1 (3.3)
  Emotional disorder, worst severity Moderate, Events: 1
  Emotional disorder, worst severity Moderate, N (%): 1 (3.3)
  Emotional disorder, worst severity Severe, Events: 0
  Emotional disorder, worst severity Severe, N (%): 0
  Euphoric mood, Events: 7
  Euphoric mood, N (%): 7 (23.3)
  Euphoric mood, worst severity Mild, Events: 0
  Euphoric mood, worst severity Mild, N (%): 0
  Euphoric mood, worst severity Moderate, Events: 6
  Euphoric mood, worst severity Moderate, N (%): 6 (20.0)
  Euphoric mood, worst severity Severe, Events: 1
  Euphoric mood, worst severity Severe, N (%): 1 (3.3)
  Fatigue, Events: 10
  Fatigue, N (%): 9 (30.0)
  Fatigue, worst severity Mild, Events: 6
  Fatigue, worst severity Mild, N (%): 6 (20.0)
  Fatigue, worst severity Moderate, Events: 3
  Fatigue, worst severity Moderate, N (%): 2 (6.7)
  Fatigue, worst severity Severe, Events: 1
  Fatigue, worst severity Severe, N (%): 1 (3.3)
  Feeling abnormal, Events: 4
  Feeling abnormal, N (%): 4 (13.3)
  Feeling abnormal, worst severity Mild, Events: 3
  Feeling abnormal, worst severity Mild, N (%): 3 (10.0)
  Feeling abnormal, worst severity Moderate, Events: 1
  Feeling abnormal, worst severity Moderate, N (%): 1 (3.3)
  Feeling abnormal, worst severity Severe, Events: 0
  Feeling abnormal, worst severity Severe, N (%): 0
  Feeling of relaxation, Events: 5
  Feeling of relaxation, N (%): 3 (10.0)
  Gastrointestinal disorders, Events: 4
  Gastrointestinal disorders, N (%): 4 (13.3)
  Gastrointestinal disorders, worst severity Mild, Events: 3
  Gastrointestinal disorders, worst severity Mild, N (%): 3 (10.0)
  Gastrointestinal disorders, worst severity Moderate, Events: 1
  Gastrointestinal disorders, worst severity Moderate, N (%): 1 (3.3)
  Gastrointestinal disorders, worst severity Severe, Events: 0
  Gastrointestinal disorders, worst severity Severe, N (%): 0
  General disorders and administration site conditions, Events: 27
  General disorders and administration site conditions, N (%): 17 (56.7)
  General disorders and administration site conditions, worst severity Mild, Events: 17
  General disorders and administration site conditions, worst severity Mild, N (%): 13 (43.3)
  General disorders and administration site conditions, worst severity Moderate, Events: 6
  General disorders and administration site conditions, worst severity Moderate, N (%): 3 (10.0)
  General disorders and administration site conditions, worst severity Severe, Events: 1
  General disorders and administration site conditions, worst severity Severe, N (%): 1 (3.3)
  Hallucination, Events: 3
  Hallucination, N (%): 3 (10.0)
  Hallucination, auditory, Events: 4
  Hallucination, auditory, N (%): 4 (13.3)
  Hallucination, auditory, worst severity Mild, Events: 1
  Hallucination, auditory, worst severity Mild, N (%): 1 (3.3)
  Hallucination, auditory, worst severity Moderate, Events: 1
  Hallucination, auditory, worst severity Moderate, N (%): 1 (3.3)
  Hallucination, auditory, worst severity Severe, Events: 2
  Hallucination, auditory, worst severity Severe, N (%): 2 (6.7)
  Hallucination, gustatory, Events: 1
  Hallucination, gustatory, N (%): 1 (3.3)
  Hallucination, olfactory, Events: 1
  Hallucination, olfactory, N (%): 1 (3.3)
  Hallucination, tactile, Events: 2
  Hallucination, tactile, N (%): 2 (6.7)
  Hallucination, visual, Events: 20
  Hallucination, visual, N (%): 18 (60.0)
  Hallucination, visual, worst severity Mild, Events: 3
  Hallucination, visual, worst severity Mild, N (%): 3 (10.0)
  Hallucination, visual, worst severity Moderate, Events: 8
  Hallucination, visual, worst severity Moderate, N (%): 8 (26.7)
  Hallucination, visual, worst severity Severe, Events: 7
  Hallucination, visual, worst severity Severe, N (%): 7 (23.3)
  Hallucination, worst severity Mild, Events: 0
  Hallucination, worst severity Mild, N (%): 0
  Hallucination, worst severity Moderate, Events: 3
  Hallucination, worst severity Moderate, N (%): 3 (10.0)
  Hallucination, worst severity Severe, Events: 0
  Hallucination, worst severity Severe, N (%): 0
  Headache, Events: 12
  Headache, N (%): 9 (30.0)
  Headache, worst severity Mild, Events: 12
  Headache, worst severity Mild, N (%): 9 (30.0)
  Headache, worst severity Moderate, Events: 0
  Headache, worst severity Moderate, N (%): 0
  Headache, worst severity Severe, Events: 0
  Headache, worst severity Severe, N (%): 0
  Hypoaesthesia, Events: 2
  Hypoaesthesia, N (%): 2 (6.7)
  Hypoaesthesia, worst severity Mild, Events: 2
  Hypoaesthesia, worst severity Mild, N (%): 2 (6.7)
  Hypoaesthesia, worst severity Moderate, Events: 0

From US20230023092A1, “TREATMENT OF DEPRESSION AND OTHER VARIOUS DISORDERS WITH PSILOCYBIN” (COMPASS […], priority 2019, published 2023)
